From patent publication US5652105A, “Substrate for detection of mammalian 5-C-DNA methyltransferase” (Health Research, Inc., priority 1995, dated 1997)
[5mC] = 5-methylcytosine

Experiments:
murine DNA 5-C-MTase = test: Methylation assay: methyl transfer from [methyl-3H]AdoMet to ODNs by DNA methyltransferase from Friend erythroleukemia cell nuclei; format: biochemical; conditions: for RELATIVE ACTIVITY (rate of methylation relative to an equal amount of AS): Table 6, single-stranded ODN; for rate of methylation relative to unmethylated A (times): ODNs with 5MeC in position 7 designed to form or not to form the stem-loop; for ACTIVITY (cpm), DNA methylase (FL): Table 5, S + M1 and its 5-fluorocytosine containing double stranded analogs
Protocol: The phosphoramidite of 5-fluorodeoxycytidine (5FdC) and unmodified 5-methyl deoxycytosine (5MdC) and 5FC-containing ODNs were synthesized and purified as described in Marasco, C. J. et al., J. Org. […] 5MdC phosphoramidite is commercially available. ss ODNs were heated to 90° C. for 10 min and quickly chilled on ice immediately prior to assay. […] For ds ODNs, an equimolar mixture of complementary ODNs was heated to 90° C. for 10 min and slowly cooled to room temperature.
Preparation of Murine DNA 5-C-MTase. The DNA 5-C-MTase used in these studies was the 100,000×g supernatant of a 0.3M NaCl extract of Friend erythroleukemia cell nuclei.
Methylation Assay. Reaction mixtures (50 μl ) in 0.1M imidazole, pH 7.4/20 mM EDTA/0.5 mM dithiothreitol contained 0.5 μg of each ODN indicated, ≈0.6 units of DNA 5-C-MTase (1 unit transfers 1 pmol to A (AS)·A'Mp (M1) per min; see Table 7), and 2.8 μCi (1 Ci=37 GBq) of [methyl-^3 H]AdoMet (AdoMet=S-adenosylmethionine) (8 μM). […] For accuracy, methylation rates <5 pmol/30 min were measured in quadrupled reaction mixtures (200 μl ). After incubation for 30 min at 37° C., ODNs were processed for quantitation of radiolabel as described (20) with 25 μg of salmon sperm DNA added as carrier prior to perchloric acid precipitation.
All assays were performed in duplicate.

[1] = target: DNA 5-C-methyltransferase (murine, Friend erythroleukemia cells) (Mus musculus, UniProt P13864 P13864:1-1620); test: methylation rate; conditions: protein: extract; tags: 0.3 M NaCl nuclear extract, 100,000 x g supernatant; single approx. 190 kDa species forming covalent complexes
DNA 5-C-methyltransferase (murine, Friend erythroleukemia cells), sequence (P13864 whole entry, one chain of several): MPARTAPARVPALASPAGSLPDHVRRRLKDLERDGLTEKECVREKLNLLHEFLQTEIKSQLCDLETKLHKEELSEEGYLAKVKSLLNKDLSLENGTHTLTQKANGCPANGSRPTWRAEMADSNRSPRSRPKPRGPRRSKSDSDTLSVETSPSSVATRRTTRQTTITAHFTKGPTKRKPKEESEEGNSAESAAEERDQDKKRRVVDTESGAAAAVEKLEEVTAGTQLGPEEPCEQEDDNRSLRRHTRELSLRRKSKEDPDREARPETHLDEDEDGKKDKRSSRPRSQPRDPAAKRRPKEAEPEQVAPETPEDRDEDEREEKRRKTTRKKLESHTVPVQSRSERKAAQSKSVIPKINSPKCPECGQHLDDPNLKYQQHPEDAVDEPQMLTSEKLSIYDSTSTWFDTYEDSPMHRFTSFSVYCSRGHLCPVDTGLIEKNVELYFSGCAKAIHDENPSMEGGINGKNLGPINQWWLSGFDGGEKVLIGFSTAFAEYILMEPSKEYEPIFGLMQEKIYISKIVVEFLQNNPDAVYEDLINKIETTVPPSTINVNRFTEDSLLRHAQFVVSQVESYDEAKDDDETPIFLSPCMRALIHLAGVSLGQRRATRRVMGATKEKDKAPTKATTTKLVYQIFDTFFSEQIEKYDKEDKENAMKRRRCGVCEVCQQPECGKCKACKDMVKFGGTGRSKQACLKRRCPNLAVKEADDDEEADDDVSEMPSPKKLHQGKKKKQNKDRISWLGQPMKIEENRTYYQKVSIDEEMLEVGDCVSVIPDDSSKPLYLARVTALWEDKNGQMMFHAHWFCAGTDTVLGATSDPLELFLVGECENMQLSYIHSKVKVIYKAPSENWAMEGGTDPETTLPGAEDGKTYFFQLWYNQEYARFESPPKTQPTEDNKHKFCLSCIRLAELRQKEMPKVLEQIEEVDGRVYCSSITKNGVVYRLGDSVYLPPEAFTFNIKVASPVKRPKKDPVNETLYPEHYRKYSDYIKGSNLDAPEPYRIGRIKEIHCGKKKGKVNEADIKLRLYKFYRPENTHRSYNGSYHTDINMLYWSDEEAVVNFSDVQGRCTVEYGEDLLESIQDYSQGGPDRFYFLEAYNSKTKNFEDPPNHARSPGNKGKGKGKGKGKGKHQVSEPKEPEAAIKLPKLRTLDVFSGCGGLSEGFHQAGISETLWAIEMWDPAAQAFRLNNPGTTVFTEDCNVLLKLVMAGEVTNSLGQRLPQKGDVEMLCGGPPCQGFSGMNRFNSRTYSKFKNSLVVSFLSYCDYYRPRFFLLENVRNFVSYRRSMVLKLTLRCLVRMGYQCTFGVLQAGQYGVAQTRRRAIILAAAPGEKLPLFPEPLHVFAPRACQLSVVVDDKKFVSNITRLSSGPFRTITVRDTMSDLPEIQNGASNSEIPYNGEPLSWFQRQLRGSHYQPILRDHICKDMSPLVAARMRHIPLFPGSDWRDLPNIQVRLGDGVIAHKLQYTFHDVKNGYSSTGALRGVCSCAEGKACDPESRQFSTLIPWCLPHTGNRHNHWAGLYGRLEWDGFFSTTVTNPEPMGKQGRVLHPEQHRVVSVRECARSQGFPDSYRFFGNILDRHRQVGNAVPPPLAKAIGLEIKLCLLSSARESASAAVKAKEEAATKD

[2] = Table 10, ss ODNs with 5 mC and 5 FC substitutions

Molecule: 5' ATTGCGNATTCCGGATCRGCGATC 3' (5-methylcytosine at 7, 5-fluorocytosine at 18, further chemistry not given here) [ASM7 F18, AS with 5-methylcytosine (N) at 7 and 5-fluorocytosine (R) at 18]
- inhibition of DNA methyltransferase (in words) (murine DNA 5-C-MTase): potent
- RELATIVE ACTIVITY (rate of methylation relative to an equal amount of AS) (murine DNA 5-C-MTase): 3
- RATE (rate of methylation relative to A) (murine DNA 5-C-MTase; [2]): 3.2

Molecule: 5' ATTGCGNATTCCGGATCCGCGATC 3' (5-methylcytosine at 7, further chemistry not given here) [ASM7, ODN A (AS) with 5-methylcytosine (N) at position 7]
- RELATIVE ACTIVITY (rate of methylation relative to an equal amount of AS) (murine DNA 5-C-MTase): 170
- Rate of methylation (murine DNA 5-C-MTase; Table 7, phosphorothioate end capped oligomers, standard cell free enzyme assay): 72,010 cpm/μg oligo/30 min
- RATE (rate of methylation relative to A) (murine DNA 5-C-MTase; Table 9, ss ODNs with 5MeC substituted for C at the sites given): 140
- RATE (rate of methylation relative to A) (murine DNA 5-C-MTase; [2]): 130
- stimulation of the rate of methylation by phosphorothioate capping (murine DNA 5-C-MTase; activity of D compared with C): more than 50%

Molecule: structure 8: ODN with 5MeC in position 7 that forms a homodimer but no stem-loop analogous to structures 5 and 6 (FIG. 9) (DNA ATTGCGCTACTCGGATCCGGCCAT; DNA, [5mC] at 7, backbone not given here)
- rate of methylation relative to unmethylated A (times) (murine DNA 5-C-MTase): same rate as unmethylated A

Molecule: structure 6: ODN with 5MeC in position 7 that forms a stem-loop with the same relationship between C7 and C18 as A (FIG. 7, 8) (DNA ATGACGCACCTCGTTGACGCGCTA; DNA, [5mC] at 7, backbone not given here)
- rate of methylation relative to unmethylated A (times) (murine DNA 5-C-MTase): > 300

Molecule: 5' GATCGCGGATCCGGAATGNGCAAT 3' (5-fluorocytosine, further chemistry not given here) [Seq. ID #14]
- ACTIVITY (cpm), DNA methylase (FL) (murine DNA 5-C-MTase): 36,000 cpm

Molecule: 5' GATCGCGGATNCGGAATGCGCAAT 3' (5-fluorocytosine, further chemistry not given here) [Seq. ID #12]
- ACTIVITY (cpm), DNA methylase (FL) (murine DNA 5-C-MTase): 140,000 cpm

Molecule: 5' GATCGCGGATCNGGAATGCGCAAT 3' (5-fluorocytosine, further chemistry not given here) [Seq. ID #13]
- ACTIVITY (cpm), DNA methylase (FL) (murine DNA 5-C-MTase): 28,000 cpm

Molecule: GATCGCGGATCCGGAATGCGCAAT (ssDNA, 5mC at 11) [A' 5mC11]
- binding signal [1]: 1.7 relative to A

Molecule: ATTGCGCATTCCGGATCCGCGATC (ssDNA, 5mC at 18) [ASM18]
- binding signal [1]: 12 relative to A

Molecule: GATCGCGGATCCGGAATGCGCAAT (ssDNA, 5mC at 6,19) [A' 5mC6,19]
- binding signal [1]: 1 relative to A

Molecule: GATCGCGGATCCGGAATGCGCAAT (ssDNA, 5mC at 12) [A' 5mC12]
- binding signal [1]: 67 relative to A

Molecule: ATTGCGCATTCCGGATCCGCGATC (ssDNA, 5mC at 17) [ASM17]
- binding signal [1]: 3.5 relative to A

Molecule: GATCGCGGATCCGGAATGCGCAAT (ssDNA, 5mC at 4) [A' 5mC4]
- binding signal [1]: 0.4 relative to A

Molecule: GATCGCGGATCCGGAATGCGCAAT (ssDNA, 5mC at 11,21) [M4 (SMx)]
- binding signal [1]: 75 relative to A

Molecule: ATTGCGCATTCCGGATCCGCGATC (ssDNA, 5mC at 20) [ASM20]
- binding signal [1]: 2.5 relative to A

Molecule: GATCGCGGATCCGGAATGCGCAAT (ssDNA, 5mC at 21) [A' 5mC21]
- binding signal [1]: 37 relative to A

Molecule: GATCGCGGATCCGGAATGCGCAAT (ssDNA, 5mC at 19) [A' 5mC19]
- binding signal [1]: 1 relative to A

Molecule: GATCGCGGATCCGGAATGCGCAAT (ssDNA, 5mC at 6) [A' 5mC6]
- binding signal [1]: 42 relative to A
